Among the data in ChEMBL document CHEMBL1141668, “Synthesis and biological activity of imidazopyridine anticoccidial agents: Part II” (Eur J Med Chem, 2008) are Activity and IC50 values, retold here.

The IC50 is the concentration that gives 50% inhibition.

For experiment [1], the system named is Eimeria maxima. Nature of the experiment: Anticoccidial activity against Eimeria maxima in chickens assessed as reduction of oocysts at 3.1 ppm measured after 8 days by ExMAC assay relative to untreated control. It is filed as functional. Further details: scale not given: the % may be the effect or the level left.
The subject of experiment [2] is Eimeria tenella. The experiment in a line: Anticoccidial activity against Eimeria tenella in chickens assessed as reduction of oocysts at 3.1 ppm measured after 8 days by ExMAC assay relative to untreated control. More on the design: scale not given: the % may be the effect or the level left. In kind it is functional.
Experiment [3] concerns Eimeria acervulina. The experiment in a line: Anticoccidial activity against Eimeria acervulina in chickens assessed as reduction of oocysts at 6.25 ppm measured after 8 days by ExMAC assay relative to untreated control. In kind it is functional. More on the design: scale not given: the % may be the effect or the level left.
Experiment [4] deals with Eimeria maxima. Nature of the experiment: Anticoccidial activity against Eimeria maxima in chickens assessed as reduction of oocysts at 6.25 ppm measured after 8 days by ExMAC assay relative to untreated control. Further details: scale not given: the % may be the effect or the level left. In kind it is functional.
Experiment [5] addresses cGMP-dependent protein kinase (Eimeria tenella, UniProt Q8MMZ8). The experiment in a line: Inhibition of Eimeria tenella cGMP-dependent protein kinase.
Experiment [6] relates to Eimeria mitis. The experiment in a line: Anticoccidial activity against Eimeria mitis in chickens assessed as reduction of oocysts at 6.25 ppm measured after 8 days by ExMAC assay relative to untreated control. In kind it is functional. Further details: scale not given: the % may be the effect or the level left.
Experiment [7] relates to Eimeria acervulina. The experiment in a line: Anticoccidial activity against Eimeria acervulina in chickens assessed as reduction of oocysts at 3.1 ppm measured after 8 days by ExMAC assay relative to untreated control. It is filed as functional. Further details: scale not given: the % may be the effect or the level left.
Experiment [8] concerns Eimeria tenella. The experiment in a line: Anticoccidial activity against Eimeria tenella in chickens assessed as reduction of oocysts at 6.25 ppm measured after 8 days by ExMAC assay relative to untreated control. More on the design: scale not given: the % may be the effect or the level left. In kind it is functional.
The test system of experiment [9] is Eimeria mitis. The experiment in a line: Anticoccidial activity against Eimeria mitis in chickens assessed as reduction of oocysts at 3.1 ppm measured after 8 days by ExMAC assay relative to untreated control. In kind it is functional. More on the design: scale not given: the % may be the effect or the level left.
Experiment [10] relates to Eimeria acervulina. Nature of the experiment: Anticoccidial activity against Eimeria acervulina in chickens assessed as reduction of oocysts at 25 ppm measured after 8 days by ExMAC assay relative to untreated control. Further details: scale not given: the % may be the effect or the level left. It is filed as functional.
Experiment [11] concerns Eimeria tenella. Nature of the experiment: Anticoccidial activity against Eimeria tenella in chickens assessed as reduction of oocysts at 10 ppm measured after 8 days by ExMAC assay relative to untreated control. In kind it is functional. Further details: scale not given: the % may be the effect or the level left.
The subject of experiment [12] is Eimeria acervulina. Nature of the experiment: Anticoccidial activity against Eimeria acervulina in chickens assessed as reduction of oocysts at 12.5 ppm measured after 8 days by ExMAC assay relative to untreated control. More on the design: scale not given: the % may be the effect or the level left. In kind it is functional.
The subject of experiment [13] is Eimeria tenella. Nature of the experiment: Anticoccidial activity against Eimeria tenella in chickens assessed as reduction of oocysts at 25 ppm measured after 8 days by ExMAC assay relative to untreated control. It is filed as functional. More on the design: scale not given: the % may be the effect or the level left.
For experiment [14], the system named is Eimeria mitis. Nature of the experiment: Anticoccidial activity against Eimeria mitis in chickens assessed as reduction of oocysts at 10 ppm measured after 8 days by ExMAC assay relative to untreated control. It is filed as functional. Further details: scale not given: the % may be the effect or the level left.
For experiment [15], the system named is Eimeria acervulina. The experiment in a line: Anticoccidial activity against Eimeria acervulina in chickens assessed as reduction of oocysts at 10 ppm measured after 8 days by ExMAC assay relative to untreated control. In kind it is functional. Further details: scale not given: the % may be the effect or the level left.
For experiment [16], the system named is Eimeria mitis. The experiment in a line: Anticoccidial activity against Eimeria mitis in chickens assessed as reduction of oocysts at 6 ppm measured after 8 days by ExMAC assay relative to untreated control. It is filed as functional. Further details: scale not given: the % may be the effect or the level left.
The subject of experiment [17] is Eimeria maxima. Nature of the experiment: Anticoccidial activity against Eimeria maxima in chickens assessed as reduction of oocysts at 6 ppm measured after 8 days by ExMAC assay relative to untreated control. Further details: scale not given: the % may be the effect or the level left. It is filed as functional.
The test system of experiment [18] is Eimeria tenella. The experiment in a line: Anticoccidial activity against Eimeria tenella in chickens assessed as reduction of oocysts at 6 ppm measured after 8 days by ExMAC assay relative to untreated control. In kind it is functional. Further details: scale not given: the % may be the effect or the level left.
For experiment [19], the system named is Eimeria tenella. The experiment in a line: Anticoccidial activity against Eimeria tenella in chickens assessed as reduction of oocysts at 8 ppm measured after 8 days by ExMAC assay relative to untreated control. It is filed as functional. More on the design: scale not given: the % may be the effect or the level left.
The test system of experiment [20] is Eimeria maxima. Nature of the experiment: Anticoccidial activity against Eimeria maxima in chickens assessed as reduction of oocysts at 12.5 ppm measured after 8 days by ExMAC assay relative to untreated control. More on the design: scale not given: the % may be the effect or the level left. It is filed as functional.
For experiment [21], the system named is Eimeria maxima. The experiment in a line: Anticoccidial activity against Eimeria maxima in chickens assessed as reduction of oocysts at 10 ppm measured after 8 days by ExMAC assay relative to untreated control. It is filed as functional. Further details: scale not given: the % may be the effect or the level left.
Experiment [22] concerns Eimeria mitis. Nature of the experiment: Anticoccidial activity against Eimeria mitis in chickens assessed as reduction of oocysts at 8 ppm measured after 8 days by ExMAC assay relative to untreated control. It is filed as functional. Further details: scale not given: the % may be the effect or the level left.
The test system of experiment [23] is Eimeria maxima. Nature of the experiment: Anticoccidial activity against Eimeria maxima in chickens assessed as reduction of oocysts at 25 ppm measured after 8 days by ExMAC assay relative to untreated control. In kind it is functional. More on the design: scale not given: the % may be the effect or the level left.
Experiment [24] has as its system Eimeria acervulina. Nature of the experiment: Anticoccidial activity against Eimeria acervulina in chickens assessed as reduction of oocysts at 8 ppm measured after 8 days by ExMAC assay relative to untreated control. It is filed as functional. More on the design: scale not given: the % may be the effect or the level left.
Experiment [25] has as its system Eimeria mitis. Nature of the experiment: Anticoccidial activity against Eimeria mitis in chickens assessed as reduction of oocysts at 12.5 ppm measured after 8 days by ExMAC assay relative to untreated control. It is filed as functional. Further details: scale not given: the % may be the effect or the level left.
Experiment [26] concerns Eimeria mitis. The experiment in a line: Anticoccidial activity against Eimeria mitis in chickens assessed as reduction of oocysts at 25 ppm measured after 8 days by ExMAC assay relative to untreated control. In kind it is functional. Further details: scale not given: the % may be the effect or the level left.
Experiment [27] deals with Eimeria tenella. Nature of the experiment: Anticoccidial activity against Eimeria tenella in chickens assessed as reduction of oocysts at 12.5 ppm measured after 8 days by ExMAC assay relative to untreated control. It is filed as functional. Further details: scale not given: the % may be the effect or the level left.
In experiment [28] the test system is Eimeria maxima. The experiment in a line: Anticoccidial activity against Eimeria maxima in chickens assessed as reduction of oocysts at 8 ppm measured after 8 days by ExMAC assay relative to untreated control. More on the design: scale not given: the % may be the effect or the level left. It is filed as functional.
The test system of experiment [29] is Eimeria acervulina. Nature of the experiment: Anticoccidial activity against Eimeria acervulina in chickens assessed as reduction of oocysts at 6 ppm measured after 8 days by ExMAC assay relative to untreated control. It is filed as functional. More on the design: scale not given: the % may be the effect or the level left.
The subject of experiment [30] is Eimeria mitis. The experiment in a line: Anticoccidial activity against Eimeria mitis in chickens assessed as reduction of oocysts at 4 ppm measured after 8 days by ExMAC assay relative to untreated control. In kind it is functional. More on the design: scale not given: the % may be the effect or the level left.
Experiment [31] has as its system Eimeria acervulina. The experiment in a line: Anticoccidial activity against Eimeria acervulina in chickens assessed as reduction of oocysts at 4 ppm measured after 8 days by ExMAC assay relative to untreated control. It is filed as functional. Further details: scale not given: the % may be the effect or the level left.
For experiment [32], the system named is Eimeria tenella. The experiment in a line: Anticoccidial activity against Eimeria tenella in chickens assessed as reduction of oocysts at 1 ppm measured after 8 days by ExMAC assay relative to untreated control. In kind it is functional. Further details: scale not given: the % may be the effect or the level left.
Experiment [33] relates to Eimeria mitis. The experiment in a line: Anticoccidial activity against Eimeria mitis in chickens assessed as reduction of oocysts at 1 ppm measured after 8 days by ExMAC assay relative to untreated control. In kind it is functional. More on the design: scale not given: the % may be the effect or the level left.
In experiment [34] the test system is Eimeria maxima. The experiment in a line: Anticoccidial activity against Eimeria maxima in chickens assessed as reduction of oocysts at 1 ppm measured after 8 days by ExMAC assay relative to untreated control. It is filed as functional. Further details: scale not given: the % may be the effect or the level left.
For experiment [35], the system named is Eimeria acervulina. Nature of the experiment: Anticoccidial activity against Eimeria acervulina in chickens assessed as reduction of oocysts at 2 ppm measured after 8 days by ExMAC assay relative to untreated control. In kind it is functional. More on the design: scale not given: the % may be the effect or the level left.
In experiment [36] the test system is Eimeria tenella. The experiment in a line: Anticoccidial activity against Eimeria tenella in chickens assessed as reduction of oocysts at 2 ppm measured after 8 days by ExMAC assay relative to untreated control. Further details: scale not given: the % may be the effect or the level left. In kind it is functional.
Experiment [37] deals with Eimeria mitis. Nature of the experiment: Anticoccidial activity against Eimeria mitis in chickens assessed as reduction of oocysts at 2 ppm measured after 8 days by ExMAC assay relative to untreated control. In kind it is functional. Further details: scale not given: the % may be the effect or the level left.
Experiment [38] relates to Eimeria acervulina. Nature of the experiment: Anticoccidial activity against Eimeria acervulina in chickens assessed as reduction of oocysts at 1 ppm measured after 8 days by ExMAC assay relative to untreated control. In kind it is functional. Further details: scale not given: the % may be the effect or the level left.
Experiment [39] relates to Eimeria maxima. Nature of the experiment: Anticoccidial activity against Eimeria maxima in chickens assessed as reduction of oocysts at 2 ppm measured after 8 days by ExMAC assay relative to untreated control. In kind it is functional. More on the design: scale not given: the % may be the effect or the level left.
Experiment [40] has as its system Eimeria tenella. Nature of the experiment: Anticoccidial activity against Eimeria tenella in chickens assessed as reduction of oocysts at 4 ppm measured after 8 days by ExMAC assay relative to untreated control. It is filed as functional. Further details: scale not given: the % may be the effect or the level left.
The subject of experiment [41] is Eimeria maxima. The experiment in a line: Anticoccidial activity against Eimeria maxima in chickens assessed as reduction of oocysts at 4 ppm measured after 8 days by ExMAC assay relative to untreated control. It is filed as functional. More on the design: scale not given: the % may be the effect or the level left.

Some results are limits rather than exact numbers.

Sequence of cGMP-dependent protein kinase (Q8MMZ8 whole entry): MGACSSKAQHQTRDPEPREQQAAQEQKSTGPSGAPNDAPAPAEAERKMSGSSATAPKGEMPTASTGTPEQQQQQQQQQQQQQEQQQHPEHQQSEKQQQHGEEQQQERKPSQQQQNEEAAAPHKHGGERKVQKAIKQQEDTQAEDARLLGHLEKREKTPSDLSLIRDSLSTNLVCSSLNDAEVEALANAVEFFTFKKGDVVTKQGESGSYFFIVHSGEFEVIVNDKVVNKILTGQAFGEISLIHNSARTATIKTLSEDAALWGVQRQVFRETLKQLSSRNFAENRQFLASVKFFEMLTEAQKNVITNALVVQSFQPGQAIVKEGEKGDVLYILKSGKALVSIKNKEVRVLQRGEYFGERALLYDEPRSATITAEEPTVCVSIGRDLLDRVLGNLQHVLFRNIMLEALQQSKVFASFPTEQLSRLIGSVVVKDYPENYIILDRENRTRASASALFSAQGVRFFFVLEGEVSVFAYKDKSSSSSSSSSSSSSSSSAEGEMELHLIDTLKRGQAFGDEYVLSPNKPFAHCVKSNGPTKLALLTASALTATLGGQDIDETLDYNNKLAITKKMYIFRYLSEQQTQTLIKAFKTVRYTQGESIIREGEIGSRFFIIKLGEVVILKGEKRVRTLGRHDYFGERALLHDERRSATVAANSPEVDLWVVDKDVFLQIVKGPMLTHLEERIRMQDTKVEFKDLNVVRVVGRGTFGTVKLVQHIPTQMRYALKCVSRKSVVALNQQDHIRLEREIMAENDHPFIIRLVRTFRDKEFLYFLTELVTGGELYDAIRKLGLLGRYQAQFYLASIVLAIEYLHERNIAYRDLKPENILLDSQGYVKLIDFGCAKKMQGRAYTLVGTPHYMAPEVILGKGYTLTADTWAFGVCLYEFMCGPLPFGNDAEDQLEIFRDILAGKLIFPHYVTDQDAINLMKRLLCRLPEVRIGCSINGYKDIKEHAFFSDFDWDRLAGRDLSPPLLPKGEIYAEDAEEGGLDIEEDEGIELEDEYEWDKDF

Take `CC(c1ccn2c(-c3ccnc(N)n3)c(-c3ccc(F)cc3)nc2c1)N(C)C` (stereo not drawn): the Activity is reported as 100% in the experiment with Eimeria maxima [1]; 100% in the experiment on Eimeria tenella [2]; 100% in the experiment on Eimeria acervulina [3]; less than 50% with Eimeria maxima [4]; 100% with Eimeria mitis [6]; 80% with Eimeria acervulina [7]. For the same compound, the Activity was 100% in the experiment with Eimeria tenella [8] and 80% in the experiment with Eimeria mitis [9]. Half-maximal inhibition in experiment [5] (IC50) was put at 0.09 nM.

Take `CN1CCC(c2ccn3c(-c4ccnc(N)n4)c(-c4ccc(F)cc4)nc3c2)CC1`: the Activity in the experiment on Eimeria acervulina [10], with Eimeria tenella [11], in the experiment on Eimeria acervulina [12], in the experiment on Eimeria tenella [13], with Eimeria mitis [14] and in the experiment with Eimeria acervulina [15] was 100% throughout. The Activity in the experiment with Eimeria mitis [16] came out at 80%; in the experiment with Eimeria maxima [17], 100%; with Eimeria tenella [18], 100%; in the experiment on Eimeria tenella [19], 100%; in the experiment on Eimeria maxima [20], 100%; in the experiment with Eimeria maxima [21] it was 100%. In addition, the Activity with Eimeria mitis [22] is recorded as 80%; in the experiment on Eimeria maxima [23], 100%; in the experiment on Eimeria acervulina [24], 80%; with Eimeria mitis [25], 100%; in the experiment with Eimeria mitis [26], 100%; with Eimeria tenella [27], 100%. In addition, the values for the Activity in the experiment on Eimeria maxima [28] and in the experiment on Eimeria acervulina [29] were 100% and 80%, respectively. In experiment [5], this compound yielded an IC50 of 0.044 nM.

`CC(c1ccn2c(-c3ccnc(N)n3)c(-c3ccc(F)cc3)nc2c1)N(C)C` (single isomer, unassigned; enantiomer B): the Activity in the experiment on Eimeria mitis [30] is 80%; in the experiment on Eimeria acervulina [31], 80%; in the experiment on Eimeria tenella [32], 50%; with Eimeria mitis [33], less than 50%; in the experiment on Eimeria maxima [34], 100%; in the experiment with Eimeria acervulina [35], 100%. For the same compound, the Activity in the experiment with Eimeria tenella [36] is recorded as 80%; in the experiment on Eimeria mitis [37], 80%; in the experiment on Eimeria acervulina [38], 80%; with Eimeria maxima [39] it was 80%; with Eimeria tenella [40] it was 80%; in the experiment on Eimeria maxima [41] it was 100%. Besides, half-maximal inhibition in experiment [5] (IC50) required 0.067 nM.
